Test system: THP-1
Assay: Cytotoxicity was determined against THP-1 cell line as reduction in cell number
Format: functional, cell-based
Details: Homo sapiens

SMILES | IC50
CCc1c2nc(c(-c3ccc(O)c(C[N+](C)(C)C)c3)c3ccc([nH]3)c(CC)c3ccc([nH]3)c(-c3ccc(O)c(C[N+](C)(C)C)c3)c3nc1C=C3)C=C2 | 88.4 nM
C[N+](C)(C)Cc1cc(-c2c3nc(cc4ccc([nH]4)c(-c4ccc(O)c(C[N+](C)(C)C)c4)c4nc(cc5ccc2[nH]5)C=C4)C=C3)ccc1O | 5.6 nM
C[N+](C)(C)Cc1cc(-c2c3nc(c(-c4ccccc4)c4ccc([nH]4)c(-c4ccc(O)c(C[N+](C)(C)C)c4)c4ccc([nH]4)c(-c4ccccc4)c4nc2C=C4)C=C3)ccc1O | 61.8 nM
CCc1c2nc(c(-c3ccc(OC)c(C[N+](C)(C)C)c3)c3ccc([nH]3)c(CC)c3ccc([nH]3)c(-c3ccc(OC)c(C[N+](C)(C)C)c3)c3nc1C=C3)C=C2 | 1400 nM
